# Data published in patent US20230131929A1, “QUINOLINE COMPOUNDS FOR TREATING RESPIRATORY DISORDERS AND VIRAL INFECTIONS” (Aldeyra Therapeutics, Inc., priority 2020, published 2023).
# Tests used:
# leukocyte migration = assay: LPS-induced acute lung injury model (preclinical ARDS model); assay type: in vivo; conditions: administered IP
# Text: In the bottom panel, the effect of test compounds on leukocyte migration is shown in the model. […] Free RASP are toxic, leading to inflammation and molecular dysfunction by covalently binding to cellular biomolecules, and have been linked to systemic immune-mediated and inflammatory diseases, such as NASH, inflammatory bowel disease (IBD), and other diseases. […]
# [1] = clinical trials; cited from earlier work
# [2] = tested on: inflammatory cytokines and chemokines; assay: LPS-induced mouse model of acute sepsis, plasma cytokine profile; assay type: in vivo; conditions: for IL-10 plasma level, significance of effect: anti-inflammatory cytokine, release facilitated
# Protocol: FIG. 4 and FIG. 5 show the effect of compound I-1 on levels of various inflammatory cytokines in a preclinical sepsis model. In the study, lipopolysaccharide (LPS) was administered IP to mice. 30 minutes later, I-1 was administered IP or PO. Mice were sacrificed after 2 hours, and their plasma submitted for cytokine profile analysis. IP=intraperitoneally; PO=orally; mpk=mg per kg. […]
# FIG. 4 and FIG. 5 show the effect of compound I-1 on levels of various inflammatory cytokines in a preclinical sepsis model. In the study, lipopolysaccharide (LPS) was administered IP to mice. 30 minutes later, I-1 was administered IP or PO. Mice were sacrificed after 2 hours, and their plasma submitted for cytokine profile analysis. IP=intraperitoneally; PO=orally. As shown in the table below, I-1 decreased several pro-inflammatory cytokines. * P≤0.05; ** P≤0.01; *** P≤0.001; **** P≤0.0001.
# [3] = dextran sulfate sodium (DSS)-induced mouse model of UC; assay type: in vivo
# Text: (§1) These cytokines and chemokines affect Th1, Th2, and Th17 pathways, all of which are important in immune homeostasis and disease (Kaiko et al., Immunology 123:326-338, 2007. DOI 10.1111/j.1365-2567.2007.02719.x.; Weaver et al., Annu. Rev. Pathol 8:477-512, 2013. DOI 10.1146/annurev-pathol-011110-130318).
# rodent models of NASH = assay type: in vivo; conditions: three different rodent models of NASH
# Text: as §1
# [4] = LPS-induced acute lung injury model
# [5] = 100 mpk IP 30 min after LPS IP, mice, plasma after 2 hours
# [6] = 400 mpk PO 30 min after LPS IP, mice, plasma after 2 hours
# [7] = LPS-induced mouse model of acute sepsis
smiles,measurement,setting,value
"CC(C)(O)c1nc2ccc(Cl)cc2cc1N [I-2, reproxalap]",infiltrating cells,leukocyte migration; [4],decreased infiltrating cells
same,lung function,leukocyte migration; [4],improved lung function
same,activity in LPS-induced acute lung injury model,leukocyte migration; compared with saline and dexamethasone,promising activity
same,effect in treating ocular inflammation,[1],beneficial effects
CC(C)(O)c1nc2ccccc2cc1N [I-1],"GM-CSF plasma level, significance of effect",[2]; [5],* (* P≤0.05)
same,"IFNγ plasma level, significance of effect",[2]; [5],*** (*** P≤0.001)
same,"IL-1β plasma level, significance of effect",[2]; [5],** (** P≤0.01)
same,"IL-5 plasma level, significance of effect",[2]; [5],**** (**** P≤0.0001)
same,"IL-7 plasma level, significance of effect",[2]; [5],** (** P≤0.01)
same,"IL-12 (p40) plasma level, significance of effect",[2]; [5],*** (*** P≤0.001)
same,"IL-17 plasma level, significance of effect",[2]; [5],** (** P≤0.01)
same,"M-CSF plasma level, significance of effect",[2]; [5],* (* P≤0.05)
same,"MIP-1α plasma level, significance of effect",[2]; [5],** (** P≤0.01)
same,"MIP-1β plasma level, significance of effect",[2]; [5],** (** P≤0.01)
same,"MIP-2 plasma level, significance of effect",[2]; [5],** (** P≤0.01)
same,"TNFα plasma level, significance of effect",[2]; [5],* (* P≤0.05)
same,"VEGF plasma level, significance of effect",[2]; [5],* (* P≤0.05)
same,"IL-10 plasma level, significance of effect",[2]; [5],** (** P≤0.01)
same,"IFNγ plasma level, significance of effect",[2]; [6],*** (*** P≤0.001)
same,"IL-1β plasma level, significance of effect",[2]; [6],** (** P≤0.01)
same,"IL-5 plasma level, significance of effect",[2]; [6],**** (**** P≤0.0001)
same,"IL-7 plasma level, significance of effect",[2]; [6],* (* P≤0.05)
same,"IL-12 (p40) plasma level, significance of effect",[2]; [6],**** (**** P≤0.0001)
same,"IL-15 plasma level, significance of effect",[2]; [6],** (** P≤0.01)
same,"IL-17 plasma level, significance of effect",[2]; [6],* (* P≤0.05)
same,"M-CSF plasma level, significance of effect",[2]; [6],*** (*** P≤0.001)
same,"MCP-1 plasma level, significance of effect",[2]; [6],** (** P≤0.01)
same,"MIP-1α plasma level, significance of effect",[2]; [6],* (* P≤0.05)
same,"MIP-1β plasma level, significance of effect",[2]; [6],* (* P≤0.05)
same,"IL-10 plasma level, significance of effect",[2]; [6],** (** P≤0.01)
same,release of inflammatory cytokines and chemokines,[2]; [7],inhibit the release
same,release of the anti-inflammatory cytokine interleukin (IL)-10,[2]; [7],facilitate the release
same,"disease parameters (body weight loss, disease activity score, colon length, colon edema, colon inflammation)",[3],improved several disease parameters
same,"circulating markers of liver function and inflammation (liver inflammation, steatosis, hepatocyte ballooning, fibrosis)",rodent models of NASH,may have beneficial effects
